In patent publication US20230135635A1, “INHIBITORS OF ULK1/2 AND METHODS OF USING SAME” (SALK INSTITUTE FOR BIOLOGICAL STUDIES, priority 2020, published 2023):

Key:
NanoLuc®-ULK1 Fusion = biological target: T1, NanoLuc®-ULK1 Fusion (Homo sapiens, UniProt O75385); assay: ULK1 NanoBRET assay in HEK293T cells; assay type: cell-based; conditions: Table 3
T1 construct: host or cells: HEK293T
T1 sequence (O75385 1-1050): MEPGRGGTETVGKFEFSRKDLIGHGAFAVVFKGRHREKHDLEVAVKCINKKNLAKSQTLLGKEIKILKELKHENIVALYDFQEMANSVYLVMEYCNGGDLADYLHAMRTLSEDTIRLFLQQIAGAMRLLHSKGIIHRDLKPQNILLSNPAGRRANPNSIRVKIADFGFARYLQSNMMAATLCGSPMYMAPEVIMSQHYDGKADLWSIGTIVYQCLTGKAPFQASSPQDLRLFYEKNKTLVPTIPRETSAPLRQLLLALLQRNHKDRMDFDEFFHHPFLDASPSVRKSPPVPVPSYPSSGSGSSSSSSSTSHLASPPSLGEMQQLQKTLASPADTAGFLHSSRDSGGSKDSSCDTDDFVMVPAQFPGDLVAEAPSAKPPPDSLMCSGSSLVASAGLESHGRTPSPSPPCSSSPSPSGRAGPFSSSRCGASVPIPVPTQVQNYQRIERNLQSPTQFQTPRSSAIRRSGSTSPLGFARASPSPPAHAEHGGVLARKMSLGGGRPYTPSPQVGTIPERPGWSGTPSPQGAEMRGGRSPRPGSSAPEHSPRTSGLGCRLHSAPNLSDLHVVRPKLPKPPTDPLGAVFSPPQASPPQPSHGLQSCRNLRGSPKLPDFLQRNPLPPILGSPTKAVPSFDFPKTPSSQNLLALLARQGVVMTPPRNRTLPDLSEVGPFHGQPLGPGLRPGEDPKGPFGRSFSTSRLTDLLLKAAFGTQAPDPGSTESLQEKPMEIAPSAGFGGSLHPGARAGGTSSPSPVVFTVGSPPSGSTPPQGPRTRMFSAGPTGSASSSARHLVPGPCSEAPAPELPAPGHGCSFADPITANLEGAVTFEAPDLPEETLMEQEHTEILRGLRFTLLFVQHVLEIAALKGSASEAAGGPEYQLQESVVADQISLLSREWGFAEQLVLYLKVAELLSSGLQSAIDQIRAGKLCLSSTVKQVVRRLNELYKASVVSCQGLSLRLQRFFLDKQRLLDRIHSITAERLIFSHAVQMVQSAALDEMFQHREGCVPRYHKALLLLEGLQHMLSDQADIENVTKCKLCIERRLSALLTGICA
Method: IC50s were also measured by ULK1 NanoBRET assay according to the following protocol: Human embryonic kidney cells (HEK293T) were transfected with NanoLuc®-ULK1 Fusion Vector (Promega #NV2211) using jetPRIME transfection reagent (Polyplus Transfection #114-15). Following 24 h, cells were trypsinized and resuspended in Opti-MEM® I (1×), Reduced Serum Medium (Gibco, #11058-021). Approximately, 7,000 cells per well (in 34 μL total volume) were replated into non-binding surface 384 well plates. Complete NanoBRET 20× Tracer K-5 reagent was prepared according to the manufacturer's directions and 2 μL were added to each well of the 384 plate (assay plate). The assay plate was mixed on an orbital shaker for 15 seconds at 700 rpm. Compounds were serially diluted at 200× final concentration in 100% DMSO, then diluted to 10× final concentration in assay media (Opti-MEM® I, Reduced Serum Medium). Next, 4 μL 10× test compounds were added to each well of the assay plate, followed by mixing at 700 rpm for 15 seconds. The assay plate was incubated for 2 h in a 37 C incubator with 5% CO2 and then equilibrated to RT for 15 min. The 3× Complete Substrate plus Inhibitor Solution was prepared according to the manufacturer's directions with a concentration of Extracellular NanoLuc® Inhibitor of 60 μM to be used at a working concentration of […]. The 3× Complete Substrate plus Inhibitor Solution was mixed and 20 μL per well was added to the assay plate and incubated at RT for 2-3 min. Donor emission wavelength (450 nm) and acceptor emission wavelength (610 nm) were measured using an assay compatible luminometer (see manufacturer's specifications).

[1] = biological target: T2, recombinant human ULK1 protein (1-649) (Homo sapiens, UniProt O75385); assay: ULK1 inhibition assay (ADP Glo); assay type: biochemical; conditions: Table 3
T2 construct: recombinant human ULK1 protein (1-649, SignalChem #U01-11G); purchased SignalChem U01-11G
T2 sequence (O75385 1-649): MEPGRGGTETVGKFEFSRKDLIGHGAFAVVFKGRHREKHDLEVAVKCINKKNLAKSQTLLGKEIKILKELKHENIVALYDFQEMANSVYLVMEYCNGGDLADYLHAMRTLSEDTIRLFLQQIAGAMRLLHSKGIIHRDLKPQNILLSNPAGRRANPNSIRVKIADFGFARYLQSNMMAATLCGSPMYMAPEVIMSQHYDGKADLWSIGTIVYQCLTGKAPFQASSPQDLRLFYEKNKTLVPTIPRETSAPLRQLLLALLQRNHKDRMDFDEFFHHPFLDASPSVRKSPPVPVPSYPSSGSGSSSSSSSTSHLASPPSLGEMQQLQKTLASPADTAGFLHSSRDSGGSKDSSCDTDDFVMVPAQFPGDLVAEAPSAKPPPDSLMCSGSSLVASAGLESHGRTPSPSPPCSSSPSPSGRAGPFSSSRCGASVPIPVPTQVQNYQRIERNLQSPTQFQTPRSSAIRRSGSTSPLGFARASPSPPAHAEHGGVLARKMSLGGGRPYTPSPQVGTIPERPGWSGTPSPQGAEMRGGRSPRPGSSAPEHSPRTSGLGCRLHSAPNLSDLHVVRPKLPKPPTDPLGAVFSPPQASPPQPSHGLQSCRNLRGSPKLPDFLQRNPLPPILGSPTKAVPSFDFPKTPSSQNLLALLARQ
How it was run: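 Recombinant ULK1 (2 ug/mL) phosphorylated myelin basic protein (80 ug/mL) at 25 uM ATP; ADP formed was detected by ADP-Glo after 1 h. Compounds ran in triplicate, 16-dose 3-fold serial dilution from 30 uM, to give IC50.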

IC50 (NanoLuc®-ULK1 Fusion)	IC50 [1]	Compound
> 100 nM	5 to 100 nM	CNC(=O)c1ccccc1Nc1nc(Nc2ccc3c(c2)OCO3)ncc1C(F)(F)F [Compound E6, 2-((2-(Benzo[d][1,3]dioxol-5-ylamino)-5-(trifluoromethyl)pyrimidin-4-yl)amino)-N-methyl benzamide]
> 100 nM	5 to 100 nM	CNC(=O)c1ccccc1Nc1nc(Nc2ccc3c(c2)OCCO3)ncc1C(F)(F)F [Compound E7, 2-((2-((2,3-Dihydrobenzo[b][1,4]dioxin-6-yl)amino)-5-(trifluoromethyl)pyrimidin-4-yl)amino)-N-methylbenzamide]
